# Results published in ChEMBL document CHEMBL4265878, “Dual-Specificity Tyrosine Phosphorylation-Regulated Kinase 1A (DYRK1A) Inhibitors as Potential Therapeutics” (J Med Chem, 2018).
# How the values were obtained:
# [1] = target: T1, Dual specificity tyrosine-phosphorylation-regulated kinase 1B (Homo sapiens, UniProt Q9Y463); experiment: Inhibition of human recombinant full length N-terminal GST-tagged DYRK1B expressed in baculovirus expression system using DYRKtide-F as substrate after 1 hr by electrophoretic analysis
# T1 sequence (Q9Y463 whole entry): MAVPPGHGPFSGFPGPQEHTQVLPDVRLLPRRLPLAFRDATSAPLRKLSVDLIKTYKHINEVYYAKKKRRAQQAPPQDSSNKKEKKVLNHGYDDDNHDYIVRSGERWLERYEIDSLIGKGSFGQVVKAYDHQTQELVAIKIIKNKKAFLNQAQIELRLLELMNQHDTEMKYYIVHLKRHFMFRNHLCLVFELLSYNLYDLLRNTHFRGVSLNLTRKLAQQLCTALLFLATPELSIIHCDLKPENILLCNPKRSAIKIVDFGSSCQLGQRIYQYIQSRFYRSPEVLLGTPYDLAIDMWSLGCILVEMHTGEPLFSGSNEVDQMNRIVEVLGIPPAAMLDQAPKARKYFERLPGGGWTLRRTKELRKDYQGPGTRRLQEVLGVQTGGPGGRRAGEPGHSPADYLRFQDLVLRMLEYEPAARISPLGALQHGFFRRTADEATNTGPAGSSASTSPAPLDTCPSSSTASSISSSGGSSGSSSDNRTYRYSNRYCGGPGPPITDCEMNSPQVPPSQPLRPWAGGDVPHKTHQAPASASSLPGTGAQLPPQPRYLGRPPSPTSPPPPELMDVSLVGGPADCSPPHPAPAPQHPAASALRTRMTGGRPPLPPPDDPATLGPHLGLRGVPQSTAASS
# [2] = target: T2, Dual specificity tyrosine-phosphorylation-regulated kinase 2 (Homo sapiens, UniProt Q92630); experiment: Inhibition of DYRK2 (unknown origin)
# T2 sequence (Q92630 whole entry): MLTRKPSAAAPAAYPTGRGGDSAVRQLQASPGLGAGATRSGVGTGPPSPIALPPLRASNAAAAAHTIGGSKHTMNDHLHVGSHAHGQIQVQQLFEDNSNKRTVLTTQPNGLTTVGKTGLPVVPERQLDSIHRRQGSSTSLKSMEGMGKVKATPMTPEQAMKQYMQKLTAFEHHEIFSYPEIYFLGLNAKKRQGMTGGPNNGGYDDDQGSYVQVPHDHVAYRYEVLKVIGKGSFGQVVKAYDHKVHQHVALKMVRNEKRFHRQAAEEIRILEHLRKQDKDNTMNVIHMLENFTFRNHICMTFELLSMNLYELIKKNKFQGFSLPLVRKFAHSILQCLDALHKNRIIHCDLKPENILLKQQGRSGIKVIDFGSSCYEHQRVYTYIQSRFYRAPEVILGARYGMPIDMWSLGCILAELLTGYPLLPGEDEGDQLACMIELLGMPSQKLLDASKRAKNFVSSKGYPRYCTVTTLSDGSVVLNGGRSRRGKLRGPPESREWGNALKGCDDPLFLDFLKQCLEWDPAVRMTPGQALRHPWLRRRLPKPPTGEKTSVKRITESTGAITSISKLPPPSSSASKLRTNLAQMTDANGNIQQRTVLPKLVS
# [3] = target: Dual specificity protein kinase CLK1 (Homo sapiens, UniProt P49759); experiment: Inhibition of CLK1 (unknown origin)
# Sequence of Dual specificity protein kinase CLK1 (P49759 whole entry): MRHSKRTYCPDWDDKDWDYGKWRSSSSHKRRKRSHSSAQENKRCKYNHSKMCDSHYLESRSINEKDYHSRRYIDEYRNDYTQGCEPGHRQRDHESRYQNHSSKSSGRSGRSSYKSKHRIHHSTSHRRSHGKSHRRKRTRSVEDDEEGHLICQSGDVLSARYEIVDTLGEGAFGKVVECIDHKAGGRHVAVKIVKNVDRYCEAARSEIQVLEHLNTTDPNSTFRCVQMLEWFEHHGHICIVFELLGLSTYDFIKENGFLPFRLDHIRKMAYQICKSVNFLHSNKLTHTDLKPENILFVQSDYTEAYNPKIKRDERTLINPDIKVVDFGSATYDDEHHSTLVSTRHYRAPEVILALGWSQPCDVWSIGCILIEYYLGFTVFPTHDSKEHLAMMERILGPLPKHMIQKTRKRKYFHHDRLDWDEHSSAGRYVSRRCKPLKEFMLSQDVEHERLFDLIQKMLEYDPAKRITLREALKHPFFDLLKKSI
# [4] = target: Dual specificity protein kinase CLK2 (Homo sapiens, UniProt P49760); experiment: Inhibition of CLK2 (unknown origin)
# Sequence of Dual specificity protein kinase CLK2 (P49760 whole entry): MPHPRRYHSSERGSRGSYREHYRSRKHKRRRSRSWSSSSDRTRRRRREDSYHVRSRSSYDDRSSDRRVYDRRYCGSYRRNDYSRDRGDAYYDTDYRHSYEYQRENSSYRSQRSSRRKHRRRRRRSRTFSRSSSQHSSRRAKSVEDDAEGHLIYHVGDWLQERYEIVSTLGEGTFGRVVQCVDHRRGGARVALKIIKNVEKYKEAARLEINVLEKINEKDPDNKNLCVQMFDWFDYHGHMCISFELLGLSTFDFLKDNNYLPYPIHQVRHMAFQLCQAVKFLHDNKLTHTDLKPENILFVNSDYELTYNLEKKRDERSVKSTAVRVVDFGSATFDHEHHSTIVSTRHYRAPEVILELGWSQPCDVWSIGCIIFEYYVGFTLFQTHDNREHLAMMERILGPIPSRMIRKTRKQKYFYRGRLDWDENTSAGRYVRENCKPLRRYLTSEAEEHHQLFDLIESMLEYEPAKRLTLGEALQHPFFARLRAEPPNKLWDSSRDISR
# [5] = target: T3, Dual specificity tyrosine-phosphorylation-regulated kinase 1A (Homo sapiens, UniProt Q13627); experiment: Inhibition of DYRK1A (unknown origin)
# [6] = target: T3, Dual specificity tyrosine-phosphorylation-regulated kinase 1A; experiment: Inhibition of GST-tagged DYRK1A (unknown origin) expressed in Escherichia coli DH5alpha at 1 uM using RRRFRPASPLRGPPK as substrate after 30 mins by kinase-glo luminescence assay relative to control
# [7] = target: T3, Dual specificity tyrosine-phosphorylation-regulated kinase 1A; experiment: Inhibition of GST-tagged DYRK1A (unknown origin) expressed in Escherichia coli DH5alpha using RRRFRPASPLRGPPK as substrate after 30 mins by kinase-glo luminescence assay
# [8] = target: T3, Dual specificity tyrosine-phosphorylation-regulated kinase 1A; experiment: Inhibition of DYRK1A (unknown origin) at 10 uM relative to control
# [9] = target: T4, Dual specificity tyrosine-phosphorylation-regulated kinase 1A (Rattus norvegicus, UniProt Q63470); experiment: Inhibition of rat DYRK1A using KKISGRLSPIMTEQ as substrate in presence of [gamma-33P]ATP after 30 mins by scintillation counting analysis
# [10] = target: T4, Dual specificity tyrosine-phosphorylation-regulated kinase 1A; experiment: Inhibition of rat recombinant GST-fused DYRK1A expressed in Escherichia coli in presence of [gamma-33P]ATP after 30 mins by scintillation counting analysis
# [11] = target: T5, MAP kinase-activated protein kinase 5 (Homo sapiens, UniProt Q8IW41); experiment: Inhibition of PRAK (unknown origin)
# T5 sequence (Q8IW41 whole entry): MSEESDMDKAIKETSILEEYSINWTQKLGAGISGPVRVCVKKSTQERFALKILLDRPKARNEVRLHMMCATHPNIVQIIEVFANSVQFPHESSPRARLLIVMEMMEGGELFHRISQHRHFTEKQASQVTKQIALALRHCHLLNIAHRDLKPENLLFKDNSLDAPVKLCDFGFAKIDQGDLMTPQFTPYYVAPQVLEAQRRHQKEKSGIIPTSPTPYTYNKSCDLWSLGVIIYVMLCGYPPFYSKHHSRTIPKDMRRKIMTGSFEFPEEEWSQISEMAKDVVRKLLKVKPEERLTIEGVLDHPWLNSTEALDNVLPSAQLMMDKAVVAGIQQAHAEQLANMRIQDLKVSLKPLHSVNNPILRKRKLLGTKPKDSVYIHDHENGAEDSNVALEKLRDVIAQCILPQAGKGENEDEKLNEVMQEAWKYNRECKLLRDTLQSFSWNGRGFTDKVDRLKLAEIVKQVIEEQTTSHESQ
# [12] = target: Aurora kinase B (Homo sapiens) (UniProt Q96GD4); experiment: Inhibition of aurora B (unknown origin) at 50 uM
# Sequence of Aurora kinase B (Homo sapiens) (Q96GD4 whole entry): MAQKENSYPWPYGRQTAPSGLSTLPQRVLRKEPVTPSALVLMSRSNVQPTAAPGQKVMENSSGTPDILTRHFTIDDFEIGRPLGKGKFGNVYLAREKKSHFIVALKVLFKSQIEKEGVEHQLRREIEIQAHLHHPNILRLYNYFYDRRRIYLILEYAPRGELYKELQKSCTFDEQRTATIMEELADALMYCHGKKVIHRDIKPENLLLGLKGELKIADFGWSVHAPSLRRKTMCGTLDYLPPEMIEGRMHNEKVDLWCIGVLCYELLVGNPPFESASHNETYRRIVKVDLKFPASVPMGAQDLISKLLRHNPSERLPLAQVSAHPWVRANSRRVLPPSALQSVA
# [13] = target: T6, MAP kinase-activated protein kinase 5 (Homo sapiens) (UniProt Q8IW41); experiment: Inhibition of PRAK (unknown origin) at 50 uM
# T6 sequence (whole entry): T5 sequence (Q8IW41 whole entry)
# [14] = target: T3, Dual specificity tyrosine-phosphorylation-regulated kinase 1A; experiment: Inhibition of DYRK1A (unknown origin) at 50 uM
# [15] = target: T3, Dual specificity tyrosine-phosphorylation-regulated kinase 1A; experiment: Inhibition of human recombinant full length GST-tagged DYRK1A expressed in baculovirus expression system assessed as decrease in tau phosphorylation at S396 preincubated for 10 mins followed by tau addition by Western blot analysis
# Casein kinase 2 = Casein kinase 2 (Rattus norvegicus, UniProt P19139); experiment: Inhibition of rat liver CK2 using RRRADDSDDDDD as substrate after 10 mins in presence of [gamma-33P]ATP
# Sequence of Casein kinase 2 (P67874 whole entry): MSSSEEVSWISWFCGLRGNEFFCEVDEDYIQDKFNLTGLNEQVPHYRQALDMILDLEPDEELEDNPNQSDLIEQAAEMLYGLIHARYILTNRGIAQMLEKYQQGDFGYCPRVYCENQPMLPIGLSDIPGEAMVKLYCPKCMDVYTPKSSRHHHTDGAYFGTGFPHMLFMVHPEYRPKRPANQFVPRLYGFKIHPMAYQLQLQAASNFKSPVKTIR
# Sequence of Casein kinase 2 (P19139 whole entry): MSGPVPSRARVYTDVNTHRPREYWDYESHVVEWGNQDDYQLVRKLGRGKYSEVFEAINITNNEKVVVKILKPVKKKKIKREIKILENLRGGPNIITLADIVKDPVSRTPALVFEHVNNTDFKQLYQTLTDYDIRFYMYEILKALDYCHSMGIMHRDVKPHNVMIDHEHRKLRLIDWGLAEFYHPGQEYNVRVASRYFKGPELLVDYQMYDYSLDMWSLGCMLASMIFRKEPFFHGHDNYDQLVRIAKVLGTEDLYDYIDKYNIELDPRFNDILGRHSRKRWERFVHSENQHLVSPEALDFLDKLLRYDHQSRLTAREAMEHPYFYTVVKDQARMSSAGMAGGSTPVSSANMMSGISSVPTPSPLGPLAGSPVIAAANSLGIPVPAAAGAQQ
# [16] = target: T3, Dual specificity tyrosine-phosphorylation-regulated kinase 1A; experiment: Inhibition of DYRK1A (unknown origin) by cell-based assay
# [17] = target: Glycogen synthase kinase-3 (Homo sapiens, UniProt P49840+P49841); experiment: Inhibition of GSK-3 (unknown origin); format: protein assay
# [18] = Inhibition of CLK (unknown origin); set-up: species or system Homo sapiens
# [19] = target: T7, Amine oxidase [flavin-containing] A (Homo sapiens, UniProt P21397); experiment: Inhibition of human recombinant MAO-A after 1 hr by MAO-Glo assay
# T7 sequence (P21397 whole entry): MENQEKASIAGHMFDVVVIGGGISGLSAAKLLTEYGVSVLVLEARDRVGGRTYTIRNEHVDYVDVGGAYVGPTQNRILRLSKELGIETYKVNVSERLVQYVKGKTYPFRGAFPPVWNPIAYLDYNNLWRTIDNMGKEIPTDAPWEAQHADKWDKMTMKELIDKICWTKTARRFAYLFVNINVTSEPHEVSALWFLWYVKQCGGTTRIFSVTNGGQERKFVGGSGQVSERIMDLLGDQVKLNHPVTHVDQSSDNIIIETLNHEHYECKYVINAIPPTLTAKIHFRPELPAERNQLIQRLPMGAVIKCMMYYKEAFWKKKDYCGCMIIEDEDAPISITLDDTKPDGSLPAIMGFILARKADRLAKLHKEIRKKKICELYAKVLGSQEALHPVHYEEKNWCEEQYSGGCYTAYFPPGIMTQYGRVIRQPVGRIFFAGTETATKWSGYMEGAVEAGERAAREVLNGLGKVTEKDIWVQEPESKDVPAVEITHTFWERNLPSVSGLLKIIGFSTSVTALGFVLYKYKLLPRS
# [20] = target: Cyclin-dependent kinase 9 (Homo sapiens, UniProt P50750); experiment: Inhibition of human full-length N-terminal GST-fused CDK9 (1 to 372 residues) expressed in baculovirus expression system using MBP as substrate after 100 mins by TR-FRET assay
# Sequence of Cyclin-dependent kinase 9 (P50750 whole entry, the tested form may be a part): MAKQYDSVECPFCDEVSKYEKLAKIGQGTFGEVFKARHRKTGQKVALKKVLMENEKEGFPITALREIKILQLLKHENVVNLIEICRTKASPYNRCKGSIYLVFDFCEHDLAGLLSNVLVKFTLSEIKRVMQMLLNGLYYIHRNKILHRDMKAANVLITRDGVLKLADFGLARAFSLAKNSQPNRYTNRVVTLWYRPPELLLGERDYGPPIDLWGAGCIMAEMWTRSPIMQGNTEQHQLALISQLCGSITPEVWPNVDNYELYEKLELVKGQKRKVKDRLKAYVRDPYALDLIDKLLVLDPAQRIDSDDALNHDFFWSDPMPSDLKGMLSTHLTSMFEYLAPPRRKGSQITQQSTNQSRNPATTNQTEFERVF
# SW-620 = experiment: cells; details: Homo sapiens, SW-620, 96 h
# [21] = target: T1, Dual specificity tyrosine-phosphorylation-regulated kinase 1B; experiment: Inhibition of DYRK1B (unknown origin)
structure (smiles),measurement,setting,value
N=C1NC(=O)/C(=C/c2ccc3c(c2)CCO3)S1,IC50,[1],24.1 nM
CN1C(=O)/C(=C\c2ccc3c(c2)OCO3)N=C1N,IC50,[2],490 nM
same,IC50,[3],100 nM
same,IC50,[4],910 nM
Brc1c(Br)c(Br)c2[nH]cnc2c1Br,IC50,[5],2100 nM
COc1ccc2c3ccnc(C)c3n(CC#N)c2c1,inhibition,[6],92%
same,IC50,[7],81 nM
COc1ccc(-n2cnc3ccc(-c4ccncc4)cc32)cc1,inhibition,[8],60 to 100%
CN(C)c1nc2c(Br)c(Br)c(Br)c(Br)c2[nH]1,IC50,[5],400 nM
O=c1[nH]c(NCCO)nc2ccc3[nH]ncc3c12,IC50,[9],610 nM
CS(=O)(=O)c1ccc(-n2cnc3ccc(-c4ccncc4)cc32)cc1,inhibition,[8],60 to 100%
CC[C@H](CO)Nc1nc(NCc2ccccc2)n2ncc(C(C)C)c2n1,IC50,[10],1300 nM
O=C(O[C@@H]1Cc2c(O)cc(O)cc2O[C@@H]1c1cc(O)c(O)c(O)c1)c1cc(O)c(O)c(O)c1 [EPIGALOCATECHIN GALLATE],IC50,[11],1000 nM
NC(=O)c1ccc(-n2cnc3ccc(-c4ccncc4)cc32)cc1,inhibition,[8],60 to 100%
COc1ccc(/C=C/C(=O)c2c(O)cc(OC)cc2OC)cc1,inhibition,[12],84%
same,inhibition,[13],91%
same,inhibition,[14],90%
c1cc(-c2ccc3ncn(-c4ccc5[nH]cnc5c4)c3c2)ccn1,inhibition,[8],60 to 100%
Cc1nccc2c1[nH]c1cc(O)ccc12,IC50,[15],90 nM
Cc1cc(=O)oc2cc3c([N+](=O)[O-])c(O)ccc3cc12,IC50,Casein kinase 2,0.37 µM
CC(C)[C@H](CO)Nc1nc(Nc2cccc(Cl)c2)c2ncn(C(C)C)c2n1 [PURVALANOLA],IC50,[16],300 nM
Cc1cc(=O)oc2cc3cc(O)ccc3cc12,IC50,Casein kinase 2,32.3 µM
O=C1NC(Nc2ccccc2)=N/C1=C/c1ccc2c(c1)OCO2,IC50,[17],0.41 µM
same,IC50,[18],60 to 70 nM
COc1ccc2c3ccnc(Cl)c3n(CC#N)c2c1,inhibition,[6],90%
same,IC50,[19],> 10 µM
CCOc1ccccc1CNc1nc(C)nc2[nH]cc(-c3ccnc(N)c3)c12,IC50,[20],10 nM
COc1cc2[nH]c(=O)c(C(=O)Nc3cc(C(=O)NCc4cccc(Cl)c4)ccc3C)cc2cc1CCCN1CCOCC1,EC50,SW-620,306 nM
N#Cc1ccc(-n2cnc3ccc(-c4ccncc4)cc32)cc1,inhibition,[8],60 to 100%
COc1cc(-c2cc(=O)c3c(O)cc(O)c(C/C=C(\C)CCC=C(C)C)c3o2)ccc1O,IC50,[21],6.4 µM
same,IC50,[5],620 nM
O=C(O)c1ccc(-n2cnc3ccc(-c4ccncc4)cc32)cc1,inhibition,[8],60 to 100%
COC(=O)c1ccc(-n2cnc3ccc(-c4ccncc4)cc32)cc1,inhibition,[8],60 to 100%
COc1ccc2c(c1)[nH]c1c(C)nccc12,inhibition,[6],> 60%
